Results taken from patent US7696246B2 (Ligand Pharmaceuticals Incorporated, priority 1999, dated 2010).
Where two headings read alike, the source gives them in different places.

Legend:
human AR [1] = molecular target: T1, human AR (Homo sapiens, UniProt P10275); experiment: Co-transfection assay, AR agonist activity (CV-1 cells, MTV-LUC reporter); type: cell-based; conditions: CV-1 cells; for EC50: agonist potency EC50; for AR Agonist CV-1 Cells Efficacy (%): percent maximal response relative to reference agonist DHT
T1 sequence (P10275 1-920): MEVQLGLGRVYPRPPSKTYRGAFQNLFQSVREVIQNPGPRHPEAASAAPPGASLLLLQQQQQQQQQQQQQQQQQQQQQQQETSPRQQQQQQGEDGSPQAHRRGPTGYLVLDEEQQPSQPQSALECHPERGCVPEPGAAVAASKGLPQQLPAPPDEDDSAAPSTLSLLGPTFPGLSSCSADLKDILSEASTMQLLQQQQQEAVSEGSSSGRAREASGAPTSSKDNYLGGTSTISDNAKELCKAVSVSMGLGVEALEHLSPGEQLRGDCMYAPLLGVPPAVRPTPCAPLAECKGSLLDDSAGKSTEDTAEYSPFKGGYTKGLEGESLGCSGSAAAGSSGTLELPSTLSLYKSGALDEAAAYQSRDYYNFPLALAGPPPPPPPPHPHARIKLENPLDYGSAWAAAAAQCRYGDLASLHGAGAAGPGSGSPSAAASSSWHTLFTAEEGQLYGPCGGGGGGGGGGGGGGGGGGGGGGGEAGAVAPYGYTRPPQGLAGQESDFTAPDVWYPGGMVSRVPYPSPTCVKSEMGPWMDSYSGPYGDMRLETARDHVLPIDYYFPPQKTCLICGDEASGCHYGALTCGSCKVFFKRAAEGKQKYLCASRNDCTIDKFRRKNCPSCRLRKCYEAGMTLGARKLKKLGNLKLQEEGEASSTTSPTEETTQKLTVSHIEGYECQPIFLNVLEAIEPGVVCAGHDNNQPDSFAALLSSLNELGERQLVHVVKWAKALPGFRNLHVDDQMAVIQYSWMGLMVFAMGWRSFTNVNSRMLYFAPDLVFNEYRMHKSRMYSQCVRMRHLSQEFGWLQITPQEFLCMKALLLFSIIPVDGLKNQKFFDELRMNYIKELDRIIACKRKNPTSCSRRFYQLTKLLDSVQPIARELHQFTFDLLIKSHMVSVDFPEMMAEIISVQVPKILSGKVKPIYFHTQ

human AR [2] = molecular target: T1, human AR; experiment: AR whole cell competitive binding assay (COS-1 cells, 3H-DHT); conditions: 1 nM 3H-DHT, Cheng-Prusoff
human AR [3] = molecular target: T1, human AR; experiment: Co-transfection assay, AR antagonist activity (CV-1 cells, in presence of DHT); type: cell-based; conditions: for AR Antagonist CV-1 Cells Efficacy (%): percent maximal inhibition, DHT at its EC50
[4] = read-out: AR Antagonist CV-1 Cells Potency

Structure (SMILES)	EC50 (human AR [1])	AR Agonist CV-1 Cells Efficacy (%) (human AR [1])	Ki (human AR [2])	AR Antagonist CV-1 Cells Efficacy (%) (human AR [3]; CV-1 cells)	IC50 (human AR [3]; [4])	IC50 (human AR [3])	IC50 (human AR [3]; CV-1 cells, antagonist potency IC50, DHT at its EC50, read-out: AR Antagonist CV-1 Cells Potency)
CS(=O)(=O)N(CC(F)(F)F)c1ccc2[nH]c(=O)cc(C(F)(F)F)c2c1 [Compound 295, 6-(N-2,2,2-Trifluoroethyl-N-methylsufonyl)amino-4-trifluoromethyl-2(1H)-quinolinone]	50 nM	30%	86 nM	49%	3.6 nM	–	–
CCCN(CC)c1ccc2[nH]c(=O)cc(C(F)(F)F)c2c1 [Compound 238, 6-(N-Ethyl-N-propyl)amino-4-trifluoromethyl-2(1H)-quinolinone]	5.3 nM	77%	17 nM	na (na = not active (i.e. efficacy of <20 and potency of >10,000))	> 10000 nM	–	–
CC1(C)OC(=O)Nc2ccc(N(CC(F)(F)F)CC(F)(F)F)cc21 [Compound 490, 1,4-Dihydro-4,4-dimethyl-6-(bis-N,N-2,2,2-trifluoroethyl)amino-1,3-benzo [d-]oxazin-2-one]	12 nM	113%	12 nM	na (na = not active (i.e. efficacy of <20 and potency of >10,000))	> 10000 nM	–	–
CC(C)c1ccc2[nH]c(=O)cc(C(F)(F)F)c2c1 [Compound 615, 6-Isopropyl-4-trifluoromethyl-2(1H)-quinolinone]	2800 nM	23%	56 nM	82%	48 nM	–	–
CC(C)(C)Nc1ccc2[nH]c(=O)cc(C(F)(F)F)c2c1 [Compound 307, 6-tert-Butylamino-4-trifluoromethyl-2(1H)-quinolinone]	> 10000 nM	–	61 nM	43%	3.2 nM	–	–
C=CC1CCCCN1c1ccc2[nH]c(=O)cc(C(F)(F)F)c2c1 (racemic) [Compound 444, (±)-6-(2-Vinyl-1-piperidino)-4-trifluoromethyl-2(1H)-quinolinone]	73 nM	83%	26 nM	na (na = not active (i.e. efficacy of <20 and potency of >10,000))	> 10000 nM	–	–
CSCC1CCCCN1c1ccc2[nH]c(=O)cc(C(F)(F)F)c2c1 (racemic) [Compound 426, (±)-6-(2-Thiomethoxymethyl-1-piperidino)-4-trifluoromethyl-2(1H)-quinolinone]	45 nM	93%	28 nM	na (na = not active (i.e. efficacy of <20 and potency of >10,000))	> 10000 nM	–	–
CCCC1CCC(CCC)N1c1ccc2[nH]c(=O)cc(C(F)(F)F)c2c1 (racemic) [Compound 365, (±)-6-(2,5-trans-Dipropyl-1-pyrrolidino)-4-trifluoromethyl-2(1H)-quinolinone]	55 nM	36%	124 nM	43%	14 nM	–	–
C[C@@H]1C=C[C@H](C)N1c1ccc2[nH]c(=O)cc(C(F)(F)F)c2c1 [Compound 332, 6-(2,5-cis-Dimethyl-1-pyrrolino)-4-trifluoromethyl-2(1H)-quinolinone]	14 nM	121%	19 nM	na (na = not active (i.e. efficacy of <20 and potency of >10,000))	> 10000 nM	–	–
O=c1cc(C(F)(F)F)c2cc(N3CCCCC3CO)ccc2[nH]1 (racemic) [Compound 331, (±)-6-(2-Hydroxymethyl-1-piperidino)-4-trifluoromethyl-2(1H)-quinolinone]	21 nM	44%	> 1000 nM	42%	5.7 nM	–	–
O=c1cc(C(F)(F)F)c2cc(C3=CCCCCC3)ccc2[nH]1 [Compound 633, 6-Cycloheptenyl-4-trifluoromethyl-2(1H)-quinolinone]	38 nM	33%	97 nM	51%	7.5 nM	–	–
O=c1cc(C(F)(F)F)c2cc(N(CC(F)(F)Cl)CC(F)(F)Cl)ccc2[nH]1 [Compound 225, 6-(bis-2-Chloro-2,2-difluoroethyl)amino-4-trifluoromethyl-2(1H)-quinolinone]	0.4 nM	90%	0.9 nM	na (na = not active (i.e. efficacy of <20 and potency of >10,000))	> 10000 nM	–	–
O=c1cc(C(F)(F)F)c2cc(N3CCCC3Cc3ccccc3)ccc2[nH]1 (racemic) [Compound 341, (±)-6-(2-Benzyl-1-pyrrolidino)-4-trifluoromethyl-2(1H)-quinolinone]	> 10000 nM	–	277 nM	85%	15 nM	–	–
CCC(CC)c1ccc2[nH]c(=O)cc(C(F)(F)F)c2c1 [Compound 647, 6-(1-Ethylpropyl)-4-trifluoromethyl-2(1H)-quinolinone]	233 nM	42%	81 nM	64%	31 nM	–	–
CCCCC1(O)C=C(c2ccc3c(c2)C(C)(C)OC(=O)N3)CCC1 (racemic) [Compound 694, (±)-6-(3-Butyl-3-hydroxy-1-)cyclohexenyl-1,4-dihydro-4,4-dimethyl-1,3-benzo[d]oxazin-2-one]	935 nM	25%	> 1000 nM	90%	64 nM	–	–
O=c1cc(C(F)(F)F)c2cc(N3CCCCC3CCOCc3ccccc3)ccc2[nH]1 (racemic) [Compound 445, (±)-6-(2-Benzyloxyethyl-1-piperidino)-4-trifluoromethyl-2(1H)-quinolinone]	26 nM	104%	5.8 nM	na (na = not active (i.e. efficacy of <20 and potency of >10,000))	–	> 10000 nM	–
O=c1cc(C(F)(F)F)c2cc(N(CC(F)(F)F)CC(F)(F)F)ccc2o1 [Compound 474, 6-(bis-N,N-2,2,2-Trifluoroethyl)amino-4-trifluoromethylcoumarin]	0.6 nM	73%	1.8 nM	na (na = not active (i.e. efficacy of <20 and potency of >10,000))	> 10000 nM	–	–
CC1CN(c2ccc3[nH]c(=O)cc(C(F)(F)F)c3c2)C(C(F)(F)F)O1 (racemic) [Compound 351, (±)-6-(2-Trifluoromethyl-5-cis-methyl-1-oxazolidino)-4-trifluoromethyl-2(1H)-quinolinone]	23 nM	79%	31 nM	na (na = not active (i.e. efficacy of <20 and potency of >10,000))	–	–	> 10000 nM
O=C1C=C(c2ccc3[nH]c(=O)cc(C(F)(F)F)c3c2)CCC1 [Compound 655, 6-(3-Oxo-1-)cyclohexenyl-4-trifluoromethyl-2(1H)-quinolinone]	> 10000 nM	–	> 1000 nM	70%	70 nM	–	–
C=CCN(CC=C)c1ccc2[nH]c(=O)cc(C(F)(F)F)c2c1 [Compound 280, 6-Diallylamino-4-trifluoromethyl-2(1H)-quinolinone]	2.2 nM	78%	2.4 nM	na (na = not active (i.e. efficacy of <20 and potency of >10,000))	> 10000 nM	–	–
CC(C)Nc1ccc2c(C(F)(F)F)c(F)c(=O)[nH]c2c1 [Compound 535, 3-Fluoro-7-isopropylamino-4-trifluoromethyl-2(1H)-quinolinone]	> 10000 nM	–	> 1000 nM	76%	60 nM	–	–
O=c1cc(C(F)(F)F)c2cc(C3=CCCC3)ccc2[nH]1 [Compound 632, 6-Cyclopentenyl-4-trifluoromethyl-2(1H)-quinolinone]	> 10000 nM	–	112 nM	75%	36 nM	–	–
CC(C)c1ccc2c(c1)CN(C)C(=O)N2 [Compound 721, 3,4-Dihydro-6-isopropyl-3-methyl-2(1H)-quinazolinone]	> 10000 nM	–	> 1000 nM	85%	32 nM	–	–
